Source: patent US20060040327A1, “Methods of screening proteins” (priority 2004, published 2006)
pKd: −log10 of the molar value.

Key:
[1] = FRET fluorescent response of E. coli expressing DsRed2-GGBP-acGFP to glucose; type: cell-based; settings: 22 mM glucose; excitation at 475 nm; after accounting for volume displacement
Description: The expression of DsRed2-GGBP-acGFP in E. coli was optimized by first inducing with IPTG and then monitoring the fluorescence produced by the DsRed2 and acGFP proteins. Initially, the protein is expressed for 2-6 hours at 37 C and then transferred to a 25 C shaker for up to 6 days. A 1 ml sample of fermentation broth is removed every 24 hrs during the 25 C expression and examined for fluorescence. […] After accounting for volume displacement, there was a 1-4% increase in DsRed2 emission at 22 mM glucose after excitation at 475 nm due to FRET.

[2] = Stability of binding activity of labeled protein on storage, fluorescent response to glucose; type: physicochemical
Description: (§1) Combining the preceding mutations provided E149C,A213R,L238S, a protein with glucose binding affinity that is within the physiological range. […] As an illustrative example, the stability of this protein's binding activity was determined by storing solutions of the labeled protein at 25° C. and at 37° C. in a dark environment, and testing aliquots periodically for fluorescent response to glucose. The fluorescence increase for E149C,A213R,L238S upon binding glucose retained 92% of the original fluorescence increase after 3 months at 25° C., and 88% after 3 months at 37° C. Relative stability of the protein's tertiary structure was determined using CD (circular dichroism) spectroscopy of the protein in solution. Spectra were collected in 10 mM PBS, pH 7.4. Each spectrum was the average of 3 accumulations. Thermal denaturation was monitored at 220 nm using a temperature slope of 15° C. per hour over a temperature range of 15-75° C. The Tm (temperature where 50% of the protein was denatured) was 47° C. without glucose and 50° C. in the presence of glucose (see FIG. 2).

[3] = Thermal denaturation by CD spectroscopy at 220 nm; type: physicochemical; settings: 10 mM PBS, pH 7.4, CD 220 nm
Excerpt: FIG. 2 depicts a plot of the CD spectra ellipticity at 220 nm wavelength of a fluorescently labeled periplasmic binding protein versus temperature. The plot for the protein without ligand is the solid line and the dotted line is the same protein in the presence of its ligand (glucose).
as §1

[4] = Fluorescent response and glucose binding curve of IANBD-labeled GGBP mutants; settings: IANBD-labeled protein; for pKd: read-out: glucose affinity; for increase in fluorescence on binding glucose: fluorescent response to 100 mM glucose
Description: GGBP protein from the above examples, expressed from E. coli strain Sg13009 following standard protocols (Qiagen) may be further purified. For example, after induction, bacteria were lysed and purified by IMAC using Talon cobalt^2+ resin (Clontech). The purified protein solution was filtered through 100 kDa and 10 kDa cutoff filters (Millipore). […] The yield from the purification was 10 mg/l and the activity of the protein is stable for at least six months. The selected mutants were expressed, purified, and IANBD-labeled to determine their ability to produce a fluorescent response to 100 mM glucose. Mutant E149C,A213R and E149C,N256R produced a 6- and 2-fold increase in fluorescence on binding glucose, respectively. […] Mutant E149C,L238S was identified through an analogous procedure.
as §1

[5] = Fluorescence assay of NBD-labeled MBP mutants, maltose; type: binding; settings: ligand Maltose; for QF: ratio of fluorescence intensity with / without ligand; for pKd: read-out: Affinity
Description: (§2) For the mutants selected by FACS, a fluorescence assay was used to determine their maltose affinity. The mutants were labeled by fluorophore coupling of N,N′-dimethyl-N-(iodoacetyl)-N′-(7-nitrobenz-2-oxa-1,3-diazol-4-yl)ethylenediamine (IANBD amide, Molecular Probes) to a cysteine site created by mutagenesis at position 95 (Gilardi et al. (1997) Protein Eng. 10(5):479-86). Briefly, purified protein (1-2 mg/ml) was treated with dithiothreitol for 30 min and then a 10-fold molar excess of freshly prepared solution of IANBD was added. The protein and dye were gently mixed at RT for 4 hrs before the unreacted dye was removed by Nap-5 (Amersham) size-exclusion column chromatography. The efficiency of the coupling was determined by absorbance.
(§3) QF is defined as the ratio of fluorescence intensity in the presence of ligand, divided by the ratio of fluorescence intensity in the absence of ligand.

[6] = Fluorescence assay of NBD-labeled MBP mutants, maltotetraose; type: binding; settings: ligand maltotetraose; for QF: ratio of fluorescence intensity with / without ligand; for pKd: read-out: Affinity
Description: as §2, §3

[7] = Fluorescence assay of NBD-labeled MBP mutants, maltotetraitol; type: binding; settings: ligand maltotetraitol; for QF: ratio of fluorescence intensity with / without ligand; for pKd: read-out: Affinity
Description: as §2, §3

[8] = Fluorescence assay of NBD-labeled MBP mutants, maltoside; type: binding; settings: ligand maltoside; ratio of fluorescence intensity with / without ligand
Description: as §2, §3

Substance | pKd ([4]; binding curve) | increase in fluorescence on binding glucose [4] [fold] | pKd [5] | pKd [6] | pKd [7] | further results
DsRed2-GGBP-acGFP | – | – | – | – | – | increase in DsRed2 emission due to FRET [1]: 1-4%
E149C,A213R,L238S: GGBP mutant combining the preceding mutations | 1.92 | > 6 | – | – | – | fluorescence increase upon binding glucose retained, of the original fluorescence increase ([2]; labeled protein solution stored 3 months at 25° C. in the dark): 92%; fluorescence increase upon binding glucose retained, of the original fluorescence increase ([2]; labeled protein solution stored 3 months at 37° C. in the dark): 88%; Tm (temperature where 50% of the protein was denatured) ([3]; in the presence of glucose): 50 °C; Tm (temperature where 50% of the protein was denatured) ([3]; without glucose): 47 °C
E149C,A213R: GGBP mutant binding protein identified by the periplasmic screening assay | 3.00 | 6 | – | – | – | –
E149C,L238S: GGBP mutant binding protein identified through an analogous procedure | 4.10 | 6 | – | – | – | –
E149C,N256R: GGBP mutant selected by screening, eliminated from further testing | – | 2 | – | – | – | glucose affinity ([4]; binding curve): did not reach saturation at 100 mM glucose
MBP(D95C)-NBD [CONTROL, reference compound] | – | – | 6.00 | 6.70 | 5.35 | QF [5]: 5.3; QF [6]: 5.2; QF [7]: 1.2; QF [8]: 5.5

More lines, main results first:

pKd ([4]; binding curve) | increase in fluorescence on binding glucose [4] [fold] | pKd [5] | pKd [6] | pKd [7] | Substance | further results
– | – | 4.82 | 5.44 | 5.43 | MBP(D14L,K15R,D95C)-NBD [SC-1] | QF [5]: 3.4; QF [6]: 2.1; QF [7]: 2.8; QF [8]: 5.5
– | – | 3.66 | 4.40 | 4.96 | MBP(D14V, K15V, D95C)-NBD [SC-2] | –
